Among the data in patent publication US9790229B2, “Bruton's tyrosine kinase inhibitors” (priority 2009, dated 2017) are IC50 values, retold here.

The term IC50 denotes the concentration needed to halve the response being measured.

This test addresses BTK (Homo sapiens (Human), UniProt Q06187). Description: In vitro BTK kinase assay: BTK-POLYGAT-LS ASSAY.
Where [1] appears, read: read-out: IC50 (10 uM ATP), 10 uM ATP, in vitro Btk kinase assay, Example 41.

Where two headings read alike, the source gives them in different places. Where only a bound is given, the exact number is not on record here.

BTK, sequence (Q06187 whole entry): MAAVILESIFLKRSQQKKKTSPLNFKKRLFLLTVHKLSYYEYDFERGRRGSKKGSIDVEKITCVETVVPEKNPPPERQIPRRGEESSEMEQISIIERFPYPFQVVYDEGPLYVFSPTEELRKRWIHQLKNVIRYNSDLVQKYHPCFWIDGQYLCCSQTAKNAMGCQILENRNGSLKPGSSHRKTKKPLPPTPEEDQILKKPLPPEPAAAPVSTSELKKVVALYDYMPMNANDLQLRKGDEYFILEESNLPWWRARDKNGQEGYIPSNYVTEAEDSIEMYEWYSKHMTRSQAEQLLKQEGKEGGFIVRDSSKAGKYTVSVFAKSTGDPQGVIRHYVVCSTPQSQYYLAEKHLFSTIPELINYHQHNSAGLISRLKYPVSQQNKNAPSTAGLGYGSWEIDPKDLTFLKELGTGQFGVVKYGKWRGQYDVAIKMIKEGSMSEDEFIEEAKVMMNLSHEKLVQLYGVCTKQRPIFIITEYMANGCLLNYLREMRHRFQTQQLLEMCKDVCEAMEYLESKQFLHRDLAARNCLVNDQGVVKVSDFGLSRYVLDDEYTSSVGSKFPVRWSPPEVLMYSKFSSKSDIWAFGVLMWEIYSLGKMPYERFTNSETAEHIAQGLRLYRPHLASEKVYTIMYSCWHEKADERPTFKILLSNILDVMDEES

Take `CN1CCC(O)(CNC(=O)Nc2cccc(C3CCCN(c4ncnc5[nH]ccc45)C3)c2)CC1` (stereo not shown) [compound 235]: the IC50 under setting [1] is greater than 10 µM.
As to `Cc1cc(NC(=O)Nc2cccc(C3CCCN(c4ncnc5[nH]ccc45)C3)c2)c(C(F)(F)F)o1` (stereo not shown) [compound 236], under setting [1], the IC50 was greater than 10 µM.
Consider `O=C(Nc1ccccc1)N[C@H]1CCCN(C2CCCN(c3ncnc4[nH]ccc34)C2)C1` (stereo partly shown) [compound 237], for which, under setting [1], the IC50 was greater than 10 µM.
Still for that read-out and setting: under `Cc1cccc(Cl)c1NC(=O)Nc1cccc(C2CCCN(c3ncnc4[nH]ccc34)C2)c1` (stereo not shown) [compound 238] stands greater than 10 µM; under `O=C(Nc1cccc(C2CCCN(c3ncnc4[nH]ccc34)C2)c1)NC1CCNC1` (stereo not shown) [compound 239], greater than 10 µM; under `CC(=O)N1CCCC(CNC(=O)Nc2cccc(C3CCCN(c4ncnc5[nH]ccc45)C3)c2)C1` (stereo not shown) [compound 240], greater than 10 µM.
Turning to `CC(C)NC(=O)Nc1cccc(C2CCCN(c3ncnc4[nH]ccc34)C2)c1` (stereo not shown) [compound 241], the IC50 under setting [1] was greater than 10 µM.
Regarding `C[C@H](NC(=O)Nc1cccc(C2CCCN(c3ncnc4[nH]ccc34)C2)c1)C1CCCCC1` (stereo partly shown) [compound 242], under setting [1], the IC50 was greater than 10 µM.
Take `O=C(Nc1cccc(C2CCCN(c3ncnc4[nH]ccc34)C2)c1)NC1CCNCC1` (stereo not shown) [compound 243]: under setting [1], the half-inhibitory concentration (IC50) was greater than 10 µM.
Turning to `Cc1nn(C)c(C)c1NC(=O)Nc1cccc(C2CCCN(c3ncnc4[nH]ccc34)C2)c1` (stereo not shown) [compound 244], the IC50 under setting [1] was greater than 10 µM.
Regarding `CN1CCC(CNC(=O)Nc2cccc(C3CCCN(c4ncnc5[nH]ccc45)C3)c2)CC1` (stereo not shown) [compound 245], under setting [1], the IC50 was greater than 10 µM.
In the case of `CC(=O)N1CCC(CNC(=O)Nc2cccc(C3CCCN(c4ncnc5[nH]ccc45)C3)c2)CC1` (stereo not shown) [compound 246], under setting [1], the IC50 is greater than 10 µM.
Take `O=C(NCC1CCS(=O)(=O)C1)Nc1cccc(C2CCCN(c3ncnc4[nH]ccc34)C2)c1` (stereo not shown) [compound 247]: the IC50 under setting [1] was greater than 10 µM.
In the case of `C[C@H](NC(=O)Nc1cccc(C2CCCN(c3ncnc4[nH]ccc34)C2)c1)c1ccccc1` (stereo partly shown) [compound 248], under setting [1], the IC50 is greater than 10 µM.
On the same count and under the same terms, the same measure for `Cn1nccc1NC(=O)Nc1cccc(C2CCCN(c3ncnc4[nH]ccc34)C2)c1` (stereo not shown) [compound 249]: greater than 10 µM.
Regarding `CC(C)(C)NC(=O)Nc1cccc(C2CCCN(c3ncnc4[nH]ccc34)C2)c1` (stereo not shown) [compound 250], the IC50 under setting [1] was greater than 10 µM.
For `O=C(NCC1CCCCN1)Nc1cccc(C2CCCN(c3ncnc4[nH]ccc34)C2)c1` (stereo not shown) [compound 252], the IC50 under setting [1] is greater than 10 µM.
On the same count and under the same terms, the same measure for `CCOC(=O)CCc1c(N)ncnc1N1CCCC(c2cccc(NC(=O)Nc3ccccc3)c2)C1` (stereo not shown) [compound 253]: greater than 10 µM; for `Cc1noc(C)c1NC(=O)Nc1cccc(C2CCCN(c3ncnc4[nH]ccc34)C2)c1` (stereo not shown) [compound 254]: greater than 10 µM; for `O=C(Nc1ccc(C2CCCC2)cc1)Nc1cccc(C2CCCN(c3ncnc4[nH]ccc34)C2)c1` (stereo not shown) [compound 255]: greater than 10 µM.
Turning to `O=C(Nc1ccccc1)N[C@H]1CCN(C2CCCN(c3ncnc4[nH]ccc34)C2)C1` (stereo partly shown) [compound 256], under setting [1], the IC50 is greater than 10 µM.
Still for that read-out and setting: under `O=C(NCC1CCC(C(F)(F)F)CC1)Nc1cccc(C2CCCN(c3ncnc4[nH]ccc34)C2)c1` (stereo not shown) [compound 257] stands greater than 10 µM; under `CC1(C)[C@@H]2CCC(CNC(=O)Nc3cccc(C4CCCN(c5ncnc6[nH]ccc56)C4)c3)[C@H]1C2` (stereo partly shown) [compound 258], greater than 10 µM; under `O=C(NCCC1CCCCC1)Nc1cccc(C2CCCN(c3ncnc4[nH]ccc34)C2)c1` (stereo not shown) [compound 259], greater than 10 µM.
With `CC(C)(C#N)c1ccccc1NC(=O)Nc1cccc(C2CCCN(c3ncnc4[nH]ccc34)C2)c1` (stereo not shown) [compound 260], the IC50 under setting [1] was greater than 10 µM.
For `NC(=O)Cc1ccccc1NC(=O)Nc1cccc(C2CCCN(c3ncnc4[nH]ccc34)C2)c1` (stereo not shown) [compound 261], under setting [1], the IC50 was greater than 10 µM.
Same read-out and setting: the same measure for `CNC(=O)Nc1cccc(C2CCCN(c3ncnc4[nH]ccc34)C2)c1` (stereo not shown) [compound 262]: greater than 10 µM; for `CC(C)(C)c1ccc(NC(=O)Nc2cccc(C3CCCN(c4ncnc5[nH]ccc45)C3)c2)cc1` (stereo not shown) [compound 263]: greater than 10 µM.
On the same count and under the same terms, under `CC(C)(C)c1cccc(NC(=O)Nc2cccc(C3CCCN(c4ncnc5[nH]ccc45)C3)c2)c1` (stereo not shown) [compound 264] stands greater than 10 µM; under `COc1ccc(C2CCCN(c3ncnc4[nH]ccc34)C2)cc1NC(=O)Nc1ccccc1` (stereo not shown) [compound 266], greater than 10 µM.
For `O=C(Nc1ccccc1)Nc1cc(C2CCCN(c3ncnc4[nH]ccc34)C2)ccc1OC(F)(F)F` (stereo not shown) [compound 267], under setting [1], the IC50 was greater than 10 µM.
Same read-out and setting: the same measure for `O=C(Nc1ccccc1)Nc1ccc(C2CCCN(c3ncnc4[nH]ccc34)C2)cc1` (stereo not shown) [compound 268]: greater than 10 µM.
Regarding `N#C/N=C(\Nc1cccc(C2CCCN(c3ncnc4[nH]ccc34)C2)c1)Nc1c(Cl)cccc1Cl` (stereo not shown) [compound 269], the IC50 lay in the range of 0.1 to 0.999 µM.
On the same count and under the same terms, under `O=C1C(Nc2ccccc2)CCN1[C@@H]1CCCN(c2ncnc3[nH]ccc23)C1` (stereo partly drawn) [compound 270, 1-((R)-1-(7H-pyrrolo[2,3-d]pyrimidin-4-yl)piperidin-3-yl)-3-(phenylamino)pyrrolidin-2-one] stands 0.1 to 0.999 µM.
For the compound `O=C1C(Nc2ccccc2)CCCN1[C@@H]1CCCN(c2ncnc3[nH]ccc23)C1` (stereo partly drawn) [compound 271, (3′R)-3-(phenylamino)-1′-(7H-pyrrolo[2,3-d]pyrimidin-4-yl)-1,3′-bipiperidin-2-one], the IC50 was in the range of 0.1 to 0.999 µM.
`O=C1[C@@H](Nc2ccccc2)CCN1[C@@H]1CCCN(c2ncnc3[nH]ccc23)C1` [compound 272] returned an IC50 of 1 to 10 µM.
`O=C1[C@H](Nc2ccccc2)CCN1[C@@H]1CCCN(c2ncnc3[nH]ccc23)C1` [compound 273] returned an IC50 of 0.1 to 0.999 µM.
The same measure, in the same setting: under `O=C1C(Nc2ccccc2)c2ccccc2N1[C@@H]1CCCN(c2ncnc3[nH]ccc23)C1` (stereo partly shown) [compound 274] stands 1 to 10 µM.
Regarding `O=C1C(Nc2cc(Cl)cc(Cl)c2)CCCN1[C@@H]1CCCN(c2ncnc3[nH]ccc23)C1` (stereo partly drawn) [compound 276, (3′R)-3-(3,5-Dichloro-phenylamino)-1′-(7H-pyrrolo[2,3-d]pyrimidin-4-yl)-1,3′-bipiperidin-2-one], the IC50 under setting [1] was less than 0.1 µM.
As for `Nc1ncnc(N2CCC[C@@H](N3CCCC(Nc4cc(F)cc(Cl)c4)C3=O)C2)c1F` (stereo partly drawn) [compound 277, (3′R)-1′-(6-amino-5-fluoropyrimidin-4-yl)-3-(3-chloro-5-fluorophenylamino)-1,3′-bipiperidin-2-one], the IC50 under setting [1] was less than 0.1 µM.
As to `Nc1ncnc(N2CCC[C@@H](N3CCCC(Nc4cc(Cl)cc(Cl)c4)C3=O)C2)c1F` (stereo partly drawn) [compound 278, (3′R)-1′-(6-amino-5-fluoropyrimidin-4-yl)-3-(3,5-dichlorophenylamino)-1,3′-bipiperidin-2-one], the IC50 under setting [1] was less than 0.1 µM.
On to `Nc1ncnc(N2C[C@@H](F)C[C@@H](N3CCCC(Nc4cc(F)cc(Cl)c4)C3=O)C2)c1F` (stereo partly drawn) [compound 279, (3′R, 5′S)-1′-(6-Amino-5-fluoropyrimidin-4-yl)-3-(3-chloro-5-fluorophenylamino)-5′-fluoro-1,3′-bipiperidin-2-one], for which the IC50 under setting [1] was less than 0.1 µM.
With `Nc1ncnc(N2C[C@@H](F)C[C@@H](N3CCCC(Nc4cc(Cl)cc(Cl)c4)C3=O)C2)c1F` (stereo partly drawn) [compound 280, (3′R,5′S)-1′-(6-Amino-5-fluoropyrimidin-4-yl)-3-(3,5-dichlorophenylamino)-5′-fluoro-1,3′-bipiperidin-2-one], the half-inhibitory concentration (IC50) under setting [1] is less than 0.1 µM.
